Legend:
Assay in all cases: biochemical
Parameters in all cases: KINOMEscan active-site competition binding panel (468 kinase assays), per cent of control at 1000 nM
Settings in all cases: KINOMEscan per cent of control (binding competition); read-out: Percent Control
DMPK2 = target: T1, DMPK2 (Homo sapiens, UniProt Q6DT37)
T1 construct: gene CDC42BPG
From the text: (§1) Figure S7 / Percent Control

ERN1 = ERN1 (Homo sapiens, UniProt O75460)
From the text: as §1

EPHA5 = EPHA5 (Homo sapiens, UniProt P54756)
From the text: as §1

[1] = target: T2, ABL1(H396P)-nonphosphorylated (Homo sapiens, UniProt P00519, H396P)
T2 construct: nonphosphorylated
From the text: as §1

MARK3 = MARK3 (Homo sapiens, UniProt P27448)
From the text: as §1

[2] = target: T3, ABL1(F317I)-nonphosphorylated (Homo sapiens, UniProt P00519, F317I)
T3 construct: nonphosphorylated
From the text: as §1

LYN = LYN (Homo sapiens, UniProt P07948)
From the text: as §1

CSNK1G2 = CSNK1G2 (Homo sapiens, UniProt P78368)
Sequence of CSNK1G2 (P78368 whole entry): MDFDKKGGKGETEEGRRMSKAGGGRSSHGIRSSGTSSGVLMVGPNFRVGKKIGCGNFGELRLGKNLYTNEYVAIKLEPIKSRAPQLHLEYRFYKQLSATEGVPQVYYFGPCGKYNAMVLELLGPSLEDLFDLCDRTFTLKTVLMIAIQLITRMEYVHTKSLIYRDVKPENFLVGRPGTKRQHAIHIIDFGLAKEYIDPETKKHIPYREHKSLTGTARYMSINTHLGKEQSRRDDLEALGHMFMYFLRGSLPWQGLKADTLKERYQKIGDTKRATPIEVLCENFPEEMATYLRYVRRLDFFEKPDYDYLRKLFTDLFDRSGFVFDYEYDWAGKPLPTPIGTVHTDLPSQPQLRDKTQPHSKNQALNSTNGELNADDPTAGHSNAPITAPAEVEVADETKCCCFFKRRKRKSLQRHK
From the text: as §1

FGFR2 = FGFR2 (Homo sapiens, UniProt P21802)
From the text: as §1

BMPR2 = BMPR2 (Homo sapiens, UniProt Q13873)
From the text: as §1

WNK1 = WNK1 (Homo sapiens, UniProt Q9H4A3)
From the text: as §1

LKB1 = target: T4, LKB1 (Homo sapiens, UniProt Q15831)
T4 construct: gene STK11
T4 sequence (Q15831 whole entry): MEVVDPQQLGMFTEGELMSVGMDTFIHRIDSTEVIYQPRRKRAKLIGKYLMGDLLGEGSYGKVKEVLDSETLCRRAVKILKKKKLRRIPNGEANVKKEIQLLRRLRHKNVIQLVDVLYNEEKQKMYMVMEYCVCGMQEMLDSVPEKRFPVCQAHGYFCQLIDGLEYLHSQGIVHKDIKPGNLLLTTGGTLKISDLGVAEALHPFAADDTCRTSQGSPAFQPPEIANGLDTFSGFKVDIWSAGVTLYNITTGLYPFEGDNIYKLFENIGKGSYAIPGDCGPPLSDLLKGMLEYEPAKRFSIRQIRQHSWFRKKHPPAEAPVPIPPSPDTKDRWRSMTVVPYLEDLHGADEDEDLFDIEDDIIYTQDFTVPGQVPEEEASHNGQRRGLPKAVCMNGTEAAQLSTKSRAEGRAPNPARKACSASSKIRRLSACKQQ
From the text: as §1

DAPK2 = DAPK2 (Homo sapiens, UniProt Q9UIK4)
From the text: as §1

MET = MET (Homo sapiens, UniProt P08581)
From the text: as §1

MEK2 = target: T5, MEK2 (Homo sapiens, UniProt P36507)
T5 construct: gene MAP2K2
From the text: as §1

ERK4 = target: T6, ERK4 (Homo sapiens, UniProt P31152)
T6 construct: gene MAPK4
From the text: as §1

CAMK4 = CAMK4 (Homo sapiens, UniProt Q16566)
From the text: as §1

PIM1 = PIM1 (Homo sapiens, UniProt P11309)
From the text: as §1

PRKR = target: T7, PRKR (Homo sapiens, UniProt P19525)
T7 construct: gene EIF2AK2
T7 sequence (P19525 whole entry): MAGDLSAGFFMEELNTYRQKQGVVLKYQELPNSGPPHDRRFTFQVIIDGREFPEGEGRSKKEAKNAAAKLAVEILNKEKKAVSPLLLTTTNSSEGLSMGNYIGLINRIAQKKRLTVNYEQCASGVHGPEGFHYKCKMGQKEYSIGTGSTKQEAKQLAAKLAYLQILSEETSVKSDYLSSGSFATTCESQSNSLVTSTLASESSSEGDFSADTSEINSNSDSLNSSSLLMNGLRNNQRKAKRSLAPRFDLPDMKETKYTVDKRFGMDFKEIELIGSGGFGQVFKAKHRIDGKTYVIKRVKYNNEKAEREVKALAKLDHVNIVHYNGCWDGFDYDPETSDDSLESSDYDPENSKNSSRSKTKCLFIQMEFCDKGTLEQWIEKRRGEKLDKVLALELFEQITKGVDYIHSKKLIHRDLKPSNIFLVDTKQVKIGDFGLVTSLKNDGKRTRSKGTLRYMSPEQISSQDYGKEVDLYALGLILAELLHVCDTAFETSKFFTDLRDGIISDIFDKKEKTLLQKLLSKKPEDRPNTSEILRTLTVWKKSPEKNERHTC
From the text: as §1

RIPK5 = target: T8, RIPK5 (Homo sapiens, UniProt Q6XUX3)
T8 construct: gene DSTYK
From the text: as §1

SIK2 = SIK2 (Homo sapiens, UniProt Q9H0K1)
From the text: as §1

TAOK2 = TAOK2 (Homo sapiens, UniProt Q9UL54)
Sequence of TAOK2 (Q9UL54 whole entry): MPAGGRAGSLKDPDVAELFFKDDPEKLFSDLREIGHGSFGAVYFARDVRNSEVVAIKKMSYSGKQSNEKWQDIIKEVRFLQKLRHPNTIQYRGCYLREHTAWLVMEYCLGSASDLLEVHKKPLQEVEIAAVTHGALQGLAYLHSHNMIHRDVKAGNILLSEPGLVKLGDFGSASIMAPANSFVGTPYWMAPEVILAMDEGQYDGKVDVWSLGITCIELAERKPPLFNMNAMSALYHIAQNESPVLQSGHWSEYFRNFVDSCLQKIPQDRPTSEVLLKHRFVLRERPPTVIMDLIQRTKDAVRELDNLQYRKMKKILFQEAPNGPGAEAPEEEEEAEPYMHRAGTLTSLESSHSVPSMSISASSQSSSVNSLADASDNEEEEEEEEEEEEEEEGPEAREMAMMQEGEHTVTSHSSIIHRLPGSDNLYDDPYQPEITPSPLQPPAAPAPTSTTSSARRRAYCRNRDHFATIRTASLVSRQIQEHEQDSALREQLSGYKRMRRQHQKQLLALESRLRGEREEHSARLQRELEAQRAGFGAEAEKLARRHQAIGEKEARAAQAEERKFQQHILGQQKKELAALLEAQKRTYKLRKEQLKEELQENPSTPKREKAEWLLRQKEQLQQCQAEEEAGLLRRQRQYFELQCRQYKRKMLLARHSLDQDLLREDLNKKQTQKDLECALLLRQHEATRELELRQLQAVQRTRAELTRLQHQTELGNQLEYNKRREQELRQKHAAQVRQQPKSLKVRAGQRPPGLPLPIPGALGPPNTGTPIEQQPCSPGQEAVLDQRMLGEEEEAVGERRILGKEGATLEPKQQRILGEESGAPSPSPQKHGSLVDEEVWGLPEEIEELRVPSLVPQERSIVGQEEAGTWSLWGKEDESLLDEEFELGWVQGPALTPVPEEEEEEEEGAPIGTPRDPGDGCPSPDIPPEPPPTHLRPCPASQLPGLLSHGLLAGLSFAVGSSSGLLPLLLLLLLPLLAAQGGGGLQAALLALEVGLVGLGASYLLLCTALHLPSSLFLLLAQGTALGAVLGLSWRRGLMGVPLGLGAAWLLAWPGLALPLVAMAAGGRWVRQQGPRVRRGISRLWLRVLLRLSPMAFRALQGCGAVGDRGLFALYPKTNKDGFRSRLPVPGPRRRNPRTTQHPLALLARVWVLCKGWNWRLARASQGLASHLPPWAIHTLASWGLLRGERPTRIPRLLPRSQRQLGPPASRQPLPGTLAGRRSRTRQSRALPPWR
From the text: as §1

PRKX = PRKX (Homo sapiens, UniProt P51817)
From the text: as §1

EGFR(G719S) = EGFR(G719S) (Homo sapiens, UniProt P00533, G719S)
Sequence of EGFR(G719S) (P00533 whole entry G719S): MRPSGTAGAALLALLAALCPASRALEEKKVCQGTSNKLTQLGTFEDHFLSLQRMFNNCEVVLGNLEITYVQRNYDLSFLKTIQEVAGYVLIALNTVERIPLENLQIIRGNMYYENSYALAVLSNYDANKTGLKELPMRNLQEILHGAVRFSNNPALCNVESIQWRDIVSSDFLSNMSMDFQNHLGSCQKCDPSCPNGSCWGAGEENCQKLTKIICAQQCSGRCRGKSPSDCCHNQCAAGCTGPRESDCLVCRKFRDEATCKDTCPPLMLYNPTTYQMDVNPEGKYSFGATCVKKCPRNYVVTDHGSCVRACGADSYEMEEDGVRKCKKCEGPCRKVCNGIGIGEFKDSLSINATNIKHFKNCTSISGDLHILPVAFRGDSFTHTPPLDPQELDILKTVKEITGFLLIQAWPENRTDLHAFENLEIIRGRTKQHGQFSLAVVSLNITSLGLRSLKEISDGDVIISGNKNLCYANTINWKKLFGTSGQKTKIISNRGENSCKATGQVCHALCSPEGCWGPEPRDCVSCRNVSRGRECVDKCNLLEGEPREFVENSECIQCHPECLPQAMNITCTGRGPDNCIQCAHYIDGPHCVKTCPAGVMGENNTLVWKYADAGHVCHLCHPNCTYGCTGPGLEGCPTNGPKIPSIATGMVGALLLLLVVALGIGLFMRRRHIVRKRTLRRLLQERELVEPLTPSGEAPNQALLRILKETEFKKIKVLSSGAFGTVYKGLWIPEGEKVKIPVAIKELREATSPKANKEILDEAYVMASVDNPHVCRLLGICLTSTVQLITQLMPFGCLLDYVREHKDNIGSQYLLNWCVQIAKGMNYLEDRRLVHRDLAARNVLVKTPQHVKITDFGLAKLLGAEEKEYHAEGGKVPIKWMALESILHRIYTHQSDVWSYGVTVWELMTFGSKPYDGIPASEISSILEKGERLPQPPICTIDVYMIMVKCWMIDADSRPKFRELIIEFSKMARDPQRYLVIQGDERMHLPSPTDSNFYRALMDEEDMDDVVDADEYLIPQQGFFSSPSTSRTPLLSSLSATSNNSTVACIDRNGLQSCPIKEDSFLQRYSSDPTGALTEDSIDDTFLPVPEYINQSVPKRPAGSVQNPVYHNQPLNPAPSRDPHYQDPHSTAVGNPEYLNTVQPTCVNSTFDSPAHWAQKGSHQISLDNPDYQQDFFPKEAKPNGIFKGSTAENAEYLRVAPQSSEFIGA
From the text: as §1

VRK2 = VRK2 (Homo sapiens, UniProt Q86Y07)
From the text: as §1

Sequence of ERN1 (O75460 whole entry): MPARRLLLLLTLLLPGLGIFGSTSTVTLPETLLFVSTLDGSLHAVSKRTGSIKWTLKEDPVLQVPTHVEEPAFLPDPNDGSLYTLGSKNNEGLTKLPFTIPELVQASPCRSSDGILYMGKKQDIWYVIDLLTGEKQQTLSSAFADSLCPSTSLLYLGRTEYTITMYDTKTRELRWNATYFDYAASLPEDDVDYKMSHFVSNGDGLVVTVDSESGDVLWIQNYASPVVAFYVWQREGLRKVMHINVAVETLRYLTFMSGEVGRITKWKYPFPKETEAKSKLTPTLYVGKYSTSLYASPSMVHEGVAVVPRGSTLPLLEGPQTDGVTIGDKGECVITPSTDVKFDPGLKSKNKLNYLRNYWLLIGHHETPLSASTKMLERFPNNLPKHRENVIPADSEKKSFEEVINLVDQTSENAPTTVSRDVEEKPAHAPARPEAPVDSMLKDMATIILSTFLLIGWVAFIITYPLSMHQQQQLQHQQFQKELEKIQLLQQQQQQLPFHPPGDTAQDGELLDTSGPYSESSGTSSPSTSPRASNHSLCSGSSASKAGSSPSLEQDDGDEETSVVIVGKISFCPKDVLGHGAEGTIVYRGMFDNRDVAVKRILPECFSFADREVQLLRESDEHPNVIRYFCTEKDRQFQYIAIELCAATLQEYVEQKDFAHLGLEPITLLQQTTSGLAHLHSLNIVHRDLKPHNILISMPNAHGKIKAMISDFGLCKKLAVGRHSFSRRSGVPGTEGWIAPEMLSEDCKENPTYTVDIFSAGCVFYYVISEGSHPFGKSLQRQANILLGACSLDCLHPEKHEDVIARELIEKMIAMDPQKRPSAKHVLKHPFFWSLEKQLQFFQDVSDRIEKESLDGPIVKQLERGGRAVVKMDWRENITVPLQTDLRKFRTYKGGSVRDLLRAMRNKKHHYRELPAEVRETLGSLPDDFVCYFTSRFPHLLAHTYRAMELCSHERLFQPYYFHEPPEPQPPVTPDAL

In the case of `Cn1c(=O)[nH]c2ccc(-c3cccc(C(=O)NC4CCn5ccnc5C4)c3)cc21` (stereo not shown) [Z36-MP5], the remaining binding at 1 µM (DMPK2) is reported as 99%, the remaining binding at 1 µM (ERN1) is reported as 49% and the remaining binding at 1 µM (EPHA5) is reported as 86%. The remaining binding at 1 µM [1] was 69%, the remaining binding at 1 µM (MARK3) was 100% and the remaining binding at 1 µM [2] was 85%. The remaining binding at 1 µM (LYN) was 77%, the remaining binding at 1 µM (CSNK1G2) was 86% and the remaining binding at 1 µM (FGFR2) was 37%. It also gave a remaining binding at 1 µM (BMPR2) of 62%, a remaining binding at 1 µM (WNK1) of 59% and a remaining binding at 1 µM (LKB1) of 97%. The remaining binding at 1 µM (DAPK2) was 93%, the remaining binding at 1 µM (MET) was 96% and the remaining binding at 1 µM (MEK2) was 58%. For the same compound, the remaining binding at 1 µM (ERK4) was 91%, the remaining binding at 1 µM (CAMK4) was 98% and the remaining binding at 1 µM (PIM1) was 90%. The remaining binding at 1 µM (PRKR) was 99%, the remaining binding at 1 µM (RIPK5) was 54% and the remaining binding at 1 µM (SIK2) was 81%. The remaining binding at 1 µM (TAOK2) was 87%, the remaining binding at 1 µM (PRKX) was 38% and the remaining binding at 1 µM (EGFR(G719S)) was 85%. For the same compound, the remaining binding at 1 µM (VRK2) was 72%.

Reference: publication PMC10924921, “Mi-2β promotes immune evasion in melanoma by activating EZH2 methylation” (Nature Communications, 2024)
